This is an account of results in US5968526A, “T cell epitopes of the major allergens from Dermatophagoides (house dust mite)” (Immulogic Pharamaceutical Corporation, priority 1995, dated 1999).

Experiment [1] has as its system T cell lines primed in vitro to Der p I. The experiment is described as follows: secondary proliferation of Der p I-primed T cell lines (Examples V, VII, XI). The class given is cell-based, human. Conditions: for T cell reactivity: overlapping Der p I peptides. The method, boiled down: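 PBMC were primed with native or recombinant Der p I (10 or 20 μg/ml) for 7 days, then expanded with IL-2 and IL-4. Resting T cells (2×10^4) were cultured 3 days with irradiated autologous EBV-B cells or PBMC and titrated protein or peptides, then pulsed 16 h with 1 μCi ³H-thymidine. S.I. was peak-response CPM over medium-only CPM, with S.I. ≥2.0 scored positive.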

For experiment [2], the system named is T cell cultures reactive with Der p I from house dust mite-allergic subjects. Description: secondary T cell proliferation assay, Group I (Der p I) overlapping and candidate/unique peptides; percent of T cell reactivity. The format is cell-based, human. Conditions: patient 1733; for T cell stimulation index (S.I.): highest S.I. ≥2.0 recorded. From the text:
To determine whether a peptide (candidate peptide) or a combination of candidate peptides are likely to comprise a sufficient percentage of the T cell reactivity of house dust mite protein allergens, to induce T cell nonresponsiveness in a substantial percentage of a population of individuals sensitive to house dust mite allergen, an algorithm can be used. In accordance with one such algorithm, a set of overlapping peptides is produced by systematically dividing the protein allergen(s) of interest into al least two overlapping peptide regions of desired lengths (e.g., of about 12-30 amino acid residues in length, preferably not longer than about 25 amino acid residues in length with about 5-15 amino acid residues of overlap). This division into peptide regions can be arbitrary, can be made according to an algorithm, or can be wholly or partially based on regions of house dust mite Group I and/or Group II protein allergens known to comprise at least one T cell epitope. Preferably, at least 50% of the entire house dust mite protein allergen sequence and more preferably, the entire house dust mite protein allergen sequence is divided into two or more peptides. A human T cell stimulation index is determined for each of the peptides in an in vitro T cell proliferation assay as described herein for each individual tested in a population of individuals sensitive to the protein antigen. For example both WO93/08279 and WO94/24281 disclose T cell studies with overlapping peptides derived from Der p I, Der p II, Der f I and Der f II. A candidate peptide or combination of candidate peptides is selected based, at least in part, on the mean human T cell stimulation index of the candidate peptide in the set of peptides tested and the positivity index of the candidate peptide in the set of peptides tested (see, FIGS. 3 and 4). The human T cell stimulation index for the candidate peptide(s) is summed. For each individual, the human T cell stimulation index for the candidate peptide(s) is divided by the sum of the human T cells stimulation indices of the remaining peptides in the set of peptides tested to determine a percent of T cell reactivity as shown below:
Alternatively, the presence of T cell epitopes in the candidate peptide dependent on amino acids residues in an overlapping peptide located at either the N-terminus or C-terminus of the candidate peptide in the amino acid sequence of the protein antigen, but which epitopes are not present in the candidate peptide can be considered in calculating the percent of T cell reactivity in the candidate peptide by use of the following formula: [formula]
In this formula, "NT flanking peptide" refers to a peptide which comprises amino acid residues which overlap with amino acid residues located at the N-terminus of the candidate peptide in the amino acid sequence of the protein antigen from which the peptide is derived; "CT flanking peptide" refers to a peptide which comprises amino acid residues which overlap with amino acid residues located a the C-terminus of the candidate peptide in the amino acid sequence of the protein antigen from which the peptide is derived. In this calculation stimulation indices for the candidate peptide, the N-terminal flanking peptide and the C-terminal flanking peptide are added and divided by the sum total of the stimulation indices for the entire set of overlapping peptides obtain a percent of T cell reactivity for the candidate peptide. If a combination of two or more candidate peptides is selected each of which contains amino acid residues which overlap, this calculation cannot be used to determine a percent of T cell reactivity for each candidate peptide separately. However, a total percent of T cell reactivity for the combination of candidate peptides can be obtained. In this situation, the stimulation indices for all of the candidate peptides which overlap is included in the calculation. […]

As to “DF I-22.2: VAATESAYLAYRNTSLDLSEQELVD, amino acid residues 40-64 of Der f I”, in experiment [1] (Der p I primed, 30 positive experiments, FIG. 15a), the “T cell response to selected Der f I peptides” value is on record as “respond significantly”.
For the substance “DP I-1: Der p I peptide, amino acid residues 1-20 (TNACSINGNAPAEIDLRQMR)”, the “percent of positive responses (S.I. of at least 2)” value in experiment [1] (33 patients) is reported as 73%. Moreover, the T cell reactivity entry in experiment [1] (33 positive experiments) is “significant regions of T cell reactivity”.
With “DP I-3: Der p I peptide (TVTPIRMQGGCGSCWAFSGVAATESAYLA)”, in experiment [2], the “T cell stimulation index (S.I.)” value stood at 3.9. In experiment [1] (33 positive experiments), the T cell reactivity result is given as “significant regions of T cell reactivity”.
As for “DP I-21.2: Der p I peptide; unique peptide (SINGNAPAEIDLRQMRTVTPIRMQ)”, in experiment [2], the “T cell stimulation index (S.I.)” value was 3.6. Also, the “T cell response to selected Der p I peptides” value in experiment [1] (33 positive experiments, FIG. 13) is “respond significantly”. For the same substance, the “positivity index (P.I.)” value in experiment [1] (mean S.I. × percent responders, 33 patients) is on record as “at least 150”.
With “DP I-23.31: modified Der p I peptide; unique peptide (DEEGVVQESYYRYVAREQSCRRPNAE)”, the “T cell stimulation index (S.I.)” value in experiment [2] turned out to be 5.7.
In the case of “DP I-26.6: modified Der p I peptide; unique peptide (DEGIKDLDAFRHYDGRTIIQRDNGYE)”, the “T cell stimulation index (S.I.)” value in experiment [2] was 5.0. The “estimated range of T cell reactivity (% reactivity of peptide)” value in experiment [2] (of total reactivity of the Der p I protein) is 12.3%-24.
